Measurements: patent publication US12084472B2 (Ardelyx, Inc., priority 2015, dated 2024)

The compounds below were run against T1, human TGR5 (Homo sapiens, UniProt Q8TDU6) (assay: Cell-based TGR5 assay (cAMP generation, HTRF)). Settings: HEK293 cells stably transfected with human TGR5; cAMP by HTRF; 30 minutes at 37° C.
T1 construct: expressed in transfected cells; host or cells: HEK293
T1 sequence (Q8TDU6 1-330): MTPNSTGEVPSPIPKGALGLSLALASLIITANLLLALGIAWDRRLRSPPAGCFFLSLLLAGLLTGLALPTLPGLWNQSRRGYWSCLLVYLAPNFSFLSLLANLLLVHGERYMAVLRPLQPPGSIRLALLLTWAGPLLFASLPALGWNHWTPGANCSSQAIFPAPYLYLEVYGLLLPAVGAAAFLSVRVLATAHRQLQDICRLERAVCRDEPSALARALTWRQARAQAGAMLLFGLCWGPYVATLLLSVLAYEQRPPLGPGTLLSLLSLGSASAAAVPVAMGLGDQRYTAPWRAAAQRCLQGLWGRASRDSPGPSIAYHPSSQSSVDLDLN
Summary of the method: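 First, compounds in 3-fold serial dilution were placed in HBSS with 10 mM HEPES pH 7.4 and 0.5 mM IBMX. Next, human TGR5-expressing HEK293 cells were added and incubated 30 min at 37° C. Finally, cAMP was detected by HTRF and pEC50 derived by logistic fitting.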

In the case of `CN(CCCCNC(=O)NCCOCCOCCNC(=O)NCCCCNC(=O)NCCOCCOCCNC(=O)NCCCCN(C)S(=O)(=O)c1ccc(Cl)c(COC2(c3cnccc3-c3ccccc3OC3CC3)CC2)c1)S(=O)(=O)c1ccc(Cl)c(COC2(c3cnccc3-c3ccccc3OC3CC3)CC2)c1` [Compound I-736, 3-(4-[N-methyl[4-chloro-3-([1-[4-(2-cyclopropoxyphenyl)pyridin-3-yl]cyclopropoxy]methyl)benzene]sulfonamido]butyl)-1-[2-(2-[2-[([4-[([2-[2-(2-[[(4-[N-methyl[4-chloro-3-([1-[4-(2-cyclopropoxyphenyl)pyridin-3-yl]cyclopropoxy]methyl)benzene]sulfonamido]butyl)carbamoyl]amino]ethoxy)ethoxy]ethyl]carbamoyl)amino]butyl]carbamoyl)amino]ethoxy]ethoxy)ethyl]urea], the “pEC50 Human TGR5” value is reported as “B (B is a pEC50 of 6 to 6.9)”.

Same assay, conditions: HEK293 cells stably transfected with human TGR5; cAMP by HTRF; 30 minutes at 37° C.; read-out: pEC50 Human TGR5 (converted)

`CC(CCCN(C)C(=O)[C@@H](O)[C@@H](O)[C@H](O)[C@@H](O)CO)c1ccc(Cl)c(CNC2(c3cnccc3-c3ccccc3OC3CC3)CC2)c1` (stereo partly drawn) [Compound I-258, (2S,3S,4R,5S)-N-(4-[4-chloro-3-[([1-[4-(2-cyclopropoxyphenyl)pyridin-3-yl]cyclopropyl]amino)methyl]phenyl]pentyl)-2,3,4,5,6-pentahydroxy-N-methylhexanamide] and `Cc1ccc(C(C)CCCN(C)C(=O)[C@@H](O)[C@@H](O)[C@H](O)[C@@H](O)CO)cc1CNC1(c2cnccc2-c2ccccc2OC2CC2)CC1` (stereo partly drawn) [Compound I-301, (2S,3S,4R,5S)-N-(4-{3-[({1-[4-(2-cyclopropoxyphenyl)pyridin-3-yl]cyclopropyl}amino)methyl]-4-methylphenyl}pentyl)-2,3,4,5,6-pentahydroxy-N-methylhexanamide] cannot be ordered by EC50: under 100 nM for the first, under 100 nM for the second.

`Cc1ccc(SCCCC(=O)N(C)C[C@H](O)[C@@H](O)[C@H](O)[C@H](O)CO)cc1COC1(c2cnccc2-c2ccccc2OC2CC2)CC1` [Compound I-652, 4-{[3-({1-[4-(2-cyclopropoxyphenyl)pyridin-3-yl]cyclopropoxy}methyl)-4-methylphenyl]sulfanyl}-N-methyl-N-[(2S,3R,4R,5R)-2,3,4,5,6-pentahydroxyhexyl]butanamide] and `Cc1ccc(SCCCC(=O)NC[C@H](O)[C@@H](O)[C@H](O)[C@H](O)CO)cc1COC1(c2cnccc2-c2ccccc2OC2CC2)CC1` [Compound I-651, 4-{[3-({1-[4-(2-cyclopropoxyphenyl)pyridin-3-yl]cyclopropoxy}methyl)-4-methylphenyl]sulfanyl}-N-[(2S,3R,4R,5R)-2,3,4,5,6-pentahydroxyhexyl]butanamide] cannot be ordered by EC50: under 100 nM for the first, under 100 nM for the second.

`Cc1ccc(C(C)CCCNC(=O)[C@@H](O)[C@@H](O)[C@H](O)[C@@H](O)CO)cc1CNC1(c2cnccc2-c2ccccc2OC2CC2)CC1` (stereo partly drawn) [Compound I-299, (2S,3S,4R,5S)-N-(4-{3-[({1-[4-(2-cyclopropoxyphenyl)pyridin-3-yl]cyclopropyl}amino)methyl]-4-methylphenyl}pentyl)-2,3,4,5,6-pentahydroxyhexanamide] and `Cc1ccc(C(C)CCCC(=O)N(C[C@H](O)[C@@H](O)[C@H](O)[C@H](O)CO)C(C)C)cc1CNC1(c2cnccc2-c2ccccc2OC2CC2)CC1` (stereo partly drawn) [Compound I-353, 5-{3-[({1-[4-(2-cyclopropoxyphenyl)pyridin-3-yl]cyclopropyl}amino)methyl]-4-methylphenyl}-N-[(2S,3R,4R,5R)-2,3,4,5,6-pentahydroxyhexyl]-N-(propan-2-yl)hexanamide] cannot be ordered by EC50: under 100 nM for the first, under 100 nM for the second.

`CN(CCCCNC(=O)NC[C@H](O)[C@@H](O)[C@H](O)[C@H](O)CO)S(=O)(=O)c1ccc(Cl)c(COC2(c3cnccc3-c3ccccc3OC3CC3)CC2)c1` (stereo in doubt) [Compound I-402, 1-{4-[N-methyl4-chloro-3-({1-[4-(2-cyclopropoxyphenyl)pyridin-3-yl]cyclopropoxy}methyl)benzenesulfonamido]butyl}-3-[(2S,3R,4R,5R)-2,3,4,5,6-pentahydroxyhexyl]urea] and `CN(CCCCNC(=O)N[C@H](CO)[C@@H](O)[C@H](O)[C@H](O)CO)S(=O)(=O)c1ccc(Cl)c(COC2(c3cnccc3-c3ccccc3OC3CC3)CC2)c1` [Compound I-778] cannot be ordered by EC50: under 100 nM for the first, under 100 nM for the second.

First: CN(CC(=O)O)CC(=O)N(CCCCc1cc(Cl)c(CNC2(c3cnccc3-c3ccccc3OC3CC3)CC2)cc1Cl)C[C@H](O)[C@@H](O)[C@H](O)[C@H](O)CO [Compound I-200, 2-({[(4-{2,5-dichloro-4-[({1-[4-(2-cyclopropoxyphenyl)pyridin-3-yl]cyclopropyl}amino)methyl]phenyl}butyl)[(2S,3R,4R,5R)-2,3,4,5,6-pentahydroxyhexyl]carbamoyl]methyl}(methyl)amino) acetic acid]
Second: COCCN(C[C@H](O)[C@@H](O)[C@H](O)[C@H](O)CO)C(=O)CCCCc1cc(Cl)c(COC2(c3cnccc3-c3ccccc3OC3CC3)CC2)cc1Cl [Compound I-127, 5-[2,5-dichloro-4-({1-[4-(2-cyclopropoxyphenyl)pyridin-3-yl]cyclopropoxy}methyl)phenyl]-N-(2-methoxyethyl)-N-[(2S,3R,4R,5R)-2,3,4,5,6-pentahydroxyhexyl]pentanamide]
The EC50 of the first is higher: 1260 to 10000 nM for the first, under 100 nM for the second.

`O=C(CCCCCCNS(=O)(=O)c1ccc(Cl)c(COC2(c3cnccc3-c3ccccc3OC3CC3)CC2)c1)NC[C@H](O)[C@@H](O)[C@H](O)[C@H](O)CO` [Compound I-432, 7-[4-chloro-3-({1-[4-(2-cyclopropoxyphenyl)pyridin-3-yl]cyclopropoxy}methyl)benzenesulfonamido]-N-[(2S,3R,4R,5R)-2,3,4,5,6-pentahydroxyhexyl]heptanamide] and `CS(=O)(=O)CCN(CCCCSc1ccc(Cl)c(COC2(c3cnccc3-c3ccccc3OC3CC3)CC2)c1)C(=O)[C@@H](O)[C@@H](O)[C@H](O)[C@@H](O)CO` [Compound I-559, (2S,3S,4R,5S)-N-(4-{[4-chloro-3-({1-[4-(2-cyclopropoxyphenyl)pyridin-3-yl]cyclopropoxy}methyl)phenyl]sulfanyl}butyl)-2,3,4,5,6-pentahydroxy-N-(2-methanesulfonylethyl)hexanamide] cannot be ordered by EC50: under 100 nM for the first, under 100 nM for the second.

Compared with `O=C(NCCCC(CO)c1ccc(Cl)c(CNC2(c3cnccc3-c3ccccc3OC3CC3)CC2)c1)NC[C@H](O)[C@@H](O)[C@H](O)[C@H](O)CO` (stereo partly drawn) [Compound I-384, 1-(4-{4-chloro-3-[({1-[4-(2-cyclopropoxyphenyl)pyridin-3-yl]cyclopropyl}amino)methyl]phenyl}-5-hydroxypentyl)-3-[(2S,3R,4R,5R)-2,3,4,5,6-pentahydroxyhexyl]urea], `CC(=O)NCCCCN(CCCC(C)c1ccc(Cl)c(CNC2(c3cnccc3-c3ccccc3OC3CC3)CC2)c1)C(=O)[C@@H](O)[C@@H](O)[C@H](O)[C@@H](O)CO` (stereo partly drawn) [Compound I-290, (2S,3S,4R,5S)-N-(4-{4-chloro-3-[({1-[4-(2-cyclopropoxyphenyl)pyridin-3-yl]cyclopropyl}amino)methyl]phenyl}pentyl)-N-(4-acetamidobutyl)-2,3,4,5,6-pentahydroxyhexanamide] is lower in EC50: 126 to 1000 nM for the first, under 100 nM for the second.

First: Fc1ccccc1-c1ccncc1C1(OCc2cc(Cl)ccc2Cl)CC1 [Compound I-50, 3-{1-[(2,5-dichlorophenyl)methoxy]cyclopropyl}-4-(2-fluorophenyl)pyridine]
Second: CC(OCc1cc(Cl)ccc1Cl)c1cnccc1-c1ccccc1OC1CC1 (stereo not drawn) [Compound I-745, 4-(2-cyclopropoxyphenyl)-3-(1-((2,5-dichlorobenzyl)oxy)ethyl)pyridine]
The EC50 of the first is higher: 1260 to 10000 nM for the first, 126 to 1000 nM for the second.

First: O=C(NC[C@H](O)[C@@H](O)[C@H](O)[C@H](O)CO)c1ccc(CCc2ccc(Cl)c(COC3(c4cnccc4-c4ccccc4OC4CC4)CC3)c2)cc1 [Compound I-724, 4-(4-Chloro-3-((1-(4-(2-cyclopropoxyphenyl)pyridin-3-yl)cyclopropoxy)methyl)phenethyl)-N-((2S,3R,4R,5R)-2,3,4,5,6-pentahydroxyhexyl)benzamide]
Second: O=C(CCCCc1cc(Cl)c(COC2(c3cnccc3-c3ccccc3OC3CC3)CC2)cc1Cl)N1CCN(C[C@H](O)[C@@H](O)[C@@H](O)[C@H](O)CO)CC1 [Compound I-92, 5-(2,5-dichloro-4-((1-(4-(2-cyclopropoxyphenyl)pyridin-3-yl)cyclopropoxy)methyl)phenyl)-1-(4-((2S,3R,4S,5R)-2,3,4,5,6-pentahydroxyhexyl)piperazin-1-yl)pentan-1-one]
The EC50 of the first is higher: 126 to 1000 nM for the first, under 100 nM for the second.

First: O=C([C@@H](O)[C@@H](O)[C@H](O)[C@@H](O)CO)N(CCCSc1ccc(Cl)c(CNC2(c3cnccc3-c3ccccc3OC3CC3)CC2)c1)C1CCOCC1 [Compound I-528, (2S,3S,4R,5S)-N-[3-({4-chloro-3-[({1-[4-(2-cyclopropoxyphenyl)pyridin-3-yl]cyclopropyl}amino)methyl]phenyl}sulfanyl)propyl]-2,3,4,5,6-pentahydroxy-N-(oxan-4-yl)hexanamide]
Second: O=C(O)CCCCc1cc(Cl)c(COC2(c3cnccc3-c3ccccc3OC3CC3)CC2)cc1Cl [Compound I-157, 5-[2,5-dichloro-4-({1-[4-(2-cyclopropoxyphenyl)pyridin-3-yl]cyclopropoxy}methyl)phenyl]pentanoic acid]
The EC50 of the first is higher: 126 to 1000 nM for the first, under 100 nM for the second.
